In brackets after ≈: the same amount, converted by molar mass.
Legend:
[1] = tested on: Lactobacillus plantarum Tensia DSM 21380; experiment: Antibiotic resistance, E-test MIC; format: cell-based; details: E-test strips
Procedure: Method. Lactobacillus plantarum Tensia DSM 21380 was tested using antibiotic strips of the E-test (AB Biodisk, Solna).

[2] = tested on: L. plantarum DSM 21379; experiment: Antibiotic resistance, E-test MIC, control strain; format: cell-based, Lactobacillus plantarum; details: E-test strips

CC[C@H]1OC(=O)[C@H](C)[C@@H](O[C@H]2C[C@@](C)(OC)[C@@H](O)[C@H](C)O2)[C@H](C)[C@@H](O[C@@H]2O[C@H](C)C[C@H](N(C)C)[C@H]2O)[C@](C)(O)C[C@@H](C)C(=O)[C@H](C)[C@@H](O)[C@]1(C)O [Erytromycin]
MIC L. plantarum Tensia DSM 21380 [1]: 0.19 µg/mL (≈ 0.259 µM) | MIC Control strain L. plantarum DSM 21379 [2]: 0.25 µg/mL (≈ 0.341 µM)

Cipro/ofloxacin
MIC L. plantarum Tensia DSM 21380 [1]: 32 µg/mL | MIC Control strain L. plantarum DSM 21379 [2]: 32 µg/mL

Gentamicin
MIC L. plantarum Tensia DSM 21380 [1]: 1.5 µg/mL | MIC Control strain L. plantarum DSM 21379 [2]: 1 µg/mL

Quinopristin/dalfopristin
MIC L. plantarum Tensia DSM 21380 [1]: 1 µg/mL | MIC Control strain L. plantarum DSM 21379 [2]: 1 µg/mL

Source: patent US20140328814A1, “ANTIMICROBIAL AND […] PROBIOTIC COMPOSITION, FOOD PRODUCT AND DIETARY SUPPLEMENT COMPRISING MICROORGANISM STRAIN LACTOBACILLUS […] TENSIA DSM 21380 AND METHOD FOR SUPPRESSING CONTAMINATING MICROBES IN A FOOD PRODUCT” (Oü Tervisliku Piima Biotehnoloogiate Arenduskeskus …, priority 2008, published 2014)
